In PubChem BioAssay (NCI):
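Following 48 hours of exposure in 96-well plates, responses at five concentrations were used to interpolate endpoints linearly. TGI denotes the concentration required for complete inhibition of growth.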

What was measured:
Experiment in all cases: NCI tumour cell line growth inhibition, 48 h
786-0 renal = system: 786-0 renal
A498 renal = system: A498 renal
ACHN renal = system: ACHN renal
BT-549 breast = system: BT-549 breast
CAKI-1 renal = system: CAKI-1 renal
CCRF-CEM leukemia = system: CCRF-CEM leukemia
COLO 205 colon = system: COLO 205 colon
DU-145 prostate = system: DU-145 prostate
EKVX NSCLC = system: EKVX NSCLC
HCC-2998 colon = system: HCC-2998 colon
HCT-116 colon = system: HCT-116 colon
HCT-15 colon = system: HCT-15 colon
HL-60(TB) leukemia = system: HL-60(TB) leukemia
HOP-62 NSCLC = system: HOP-62 NSCLC
HOP-92 NSCLC = system: HOP-92 NSCLC
HS 578T breast = system: HS 578T breast
HT29 colon = system: HT29 colon
IGROV1 ovarian = system: IGROV1 ovarian
K-562 leukemia = system: K-562 leukemia
KM12 colon = system: KM12 colon
LOX IMVI melanoma = system: LOX IMVI melanoma
MALME-3M melanoma = system: MALME-3M melanoma
MCF7 breast = system: MCF7 breast
MDA-MB-231 breast = system: MDA-MB-231 breast
MDA-MB-435 = system: MDA-MB-435
MDA-N = system: MDA-N
NCI-H226 lung = system: NCI-H226 lung
NCI-H23 lung = system: NCI-H23 lung
NCI-H460 lung = system: NCI-H460 lung
NCI-H522 lung = system: NCI-H522 lung
NCI/ADR-RES ovarian = system: NCI/ADR-RES ovarian
OVCAR-3 ovarian = system: OVCAR-3 ovarian
OVCAR-4 ovarian = system: OVCAR-4 ovarian
OVCAR-5 ovarian = system: OVCAR-5 ovarian
OVCAR-8 ovarian = system: OVCAR-8 ovarian
PC-3 prostate = system: PC-3 prostate
RPMI-8226 leukemia = system: RPMI-8226 leukemia
RXF 393 renal = system: RXF 393 renal
SF-268 CNS = system: SF-268 CNS
SF-295 CNS = system: SF-295 CNS
SF-539 CNS = system: SF-539 CNS
SK-MEL-2 melanoma = system: SK-MEL-2 melanoma
SK-MEL-28 melanoma = system: SK-MEL-28 melanoma
SK-MEL-5 melanoma = system: SK-MEL-5 melanoma
SK-OV-3 ovarian = system: SK-OV-3 ovarian
SN12C renal = system: SN12C renal
SNB-75 CNS = system: SNB-75 CNS
SR leukemia = system: SR leukemia
SW-620 colon = system: SW-620 colon
T-47D breast = system: T-47D breast
TK-10 renal = system: TK-10 renal
U251 CNS = system: U251 CNS
UACC-257 melanoma = system: UACC-257 melanoma
UACC-62 melanoma = system: UACC-62 melanoma

## Cc1c(-c2ccccc2)c(C#N)c2nnn(-c3ccc([N+](=O)[O-])cc3)c(=O)n12
786-0 renal
  TGI: 18.4 µM
A498 renal
  TGI: 49 µM
ACHN renal
  TGI: > 100 µM
BT-549 breast
  TGI: 69.9 µM
CAKI-1 renal
  TGI: > 100 µM
CCRF-CEM leukemia
  TGI: 58.2 µM
COLO 205 colon
  TGI: 40.6 µM
DU-145 prostate
  TGI: 23.2 µM
EKVX NSCLC
  TGI: 23.8 µM
HCC-2998 colon
  TGI: > 100 µM
HCT-116 colon
  TGI: > 100 µM
HCT-15 colon
  TGI: > 100 µM
HL-60(TB) leukemia
  TGI: 13.9 µM
HOP-62 NSCLC
  TGI: 45 µM
HOP-92 NSCLC
  TGI: 45.4 µM
HS 578T breast
  TGI: > 100 µM
HT29 colon
  TGI: 75.3 µM
IGROV1 ovarian
  TGI: 25.3 µM
K-562 leukemia
  TGI: > 100 µM
KM12 colon
  TGI: > 100 µM
LOX IMVI melanoma
  TGI: 42.8 µM
MALME-3M melanoma
  TGI: > 100 µM
MCF7 breast
  TGI: 68.7 µM
MDA-MB-231 breast
  TGI: 27.2 µM
MDA-MB-435
  TGI: > 100 µM
MDA-N
  TGI: > 100 µM
NCI-H226 lung
  TGI: 34 µM
NCI-H23 lung
  TGI: 86.5 µM
NCI-H460 lung
  TGI: > 100 µM
NCI-H522 lung
  TGI: 33 µM
NCI/ADR-RES ovarian
  TGI: 64.7 µM
OVCAR-3 ovarian
  TGI: 39.8 µM
OVCAR-4 ovarian
  TGI: 38.2 µM
OVCAR-5 ovarian
  TGI: 95.4 µM
OVCAR-8 ovarian
  TGI: 23.6 µM
PC-3 prostate
  TGI: 9.54 µM
RPMI-8226 leukemia
  TGI: > 100 µM
RXF 393 renal
  TGI: 48.2 µM
SF-268 CNS
  TGI: 45.3 µM
SF-295 CNS
  TGI: 74.9 µM
SF-539 CNS
  TGI: 27 µM
SK-MEL-2 melanoma
  TGI: 28.6 µM
SK-MEL-28 melanoma
  TGI: > 100 µM
SK-MEL-5 melanoma
  TGI: > 100 µM
SK-OV-3 ovarian
  TGI: > 100 µM
SN12C renal
  TGI: 69.2 µM
SNB-75 CNS
  TGI: 44.1 µM
SR leukemia
  TGI: > 100 µM
SW-620 colon
  TGI: > 100 µM
T-47D breast
  TGI: > 100 µM
TK-10 renal
  TGI: 90 µM
U251 CNS
  TGI: 21.5 µM
UACC-257 melanoma
  TGI: > 100 µM
UACC-62 melanoma
  TGI: > 100 µM
